Assay results as given in patent publication US9249102B2 (priority 2012, dated 2016).
Read-outs that look alike come from different tables or passages of the source.

How the values were obtained:
Haemonchus contortus = test: Method A: Haemonchus contortus L1 larvae, microtitre plate screen; conditions: 96 h, read-out: motility inhibition
Cooperia oncophora = test: Method C: Cooperia oncophora L1 larvae in vitro; conditions: 96 h, read-out: inhibition of motility
[1] = Method G: permeability in the Caco-2/TC7 in vitro model; conditions: human, Caco-2, pH 6.5
[2] = system: microfilaria of Dirofilaria immitis; test: Method F: microfilaria of Dirofilaria immitis, survival at 24 hours
[3] = survival of microfilaria at 24 hours

SMILES	inhibition at 5 µg/mL (Haemonchus contortus) [%]	inhibition at 5 µg/mL (Cooperia oncophora) [%]	Papp A→B at 20 μM [1] [×10⁻⁶ cm/s]	EC50 [2, 3] [µg/mL]	EC50 [2] [µg/mL]
O=C(CO[C@H]1CC[C@H](Nc2ccc([N+](=O)[O-])c(C(F)(F)F)c2)CC1)N1CCN(Cc2nc3cc(Cl)ccc3s2)CC1 [Compound 291, 1-[4-[(5-chloro-1,3-benzothiazol-2-yl)methyl]piperazin-1-yl]-2-[4-[4-nitro-3-(trifluoromethyl)anilino]cyclohexoxy]ethanone]	≥ 90	≥ 90	6.2		
O=C(CO[C@H]1CC[C@H](Nc2ccc([N+](=O)[O-])c(C(F)(F)F)c2)CC1)N1CCN(Cc2nc3cc(Cl)ccc3o2)CC1 [Compound 287, 2-[(4-[[4-nitro-3-(trifluoromethyl)phenyl]amino]cyclohexyl)-oxy]1-[4-(5-chlorobenzoxazol-2-ylmethyl)piperazin-1-yl]ethan-1-one]	≥ 90		11	< 5	
N#Cc1ccc(N[C@H]2CC[C@H](OCC(=O)N3CCN(Cc4nc5cc(Cl)ccc5s4)CC3)CC2)cc1C(F)(F)F [Compound 292, 4-[[4-[2-[4-[(5-chloro-1,3-benzothiazol-2-yl)methyl]piperazin-1-yl]-2-oxo-ethoxy]cyclohexyl]amino]-2-(trifluoromethyl)benzonitrile]	≥ 90		8.3		< 1
N#Cc1ccc(N[C@H]2CC[C@H](OCC(=O)N3CCN(Cc4nc5cc(F)ccc5s4)CC3)CC2)cc1C(F)(F)F [Compound 294, 4-[[4-[2-[4-[(5-fluoro-1,3-benzothiazol-2-yl)methyl]piperazin-1-yl]-2-oxo-ethoxy]cyclohexyl]amino]-2-(trifluoromethyl)benzonitrile]	≥ 90		8.2		< 5
O=C(COc1ccc(Nc2ccc([N+](=O)[O-])c(C(F)(F)F)c2)cc1)N1CCN(CC2Cc3cc(C(F)(F)F)ccc3O2)CC1 (stereo not shown) [Compound 187, 2-(4-[[4-nitro-3-(trifluoromethyl)phenyl]amino]phenoxy)-1-(4-[[5-(trifluoromethyl)-2,3-dihydro-1-benzofuran-2-yl]methyl]piperazin-1-yl)ethan-1-one]	≥ 90		5.5	< 1	
N#Cc1ccc(N[C@H]2CC[C@H](OCC(=O)N3CCN(CC4Cc5cc(C(F)(F)F)ccc5O4)CC3)CC2)cc1C(F)(F)F (stereo partly shown) [Compound 84, 4-([4-[2-oxo-2-(4-[[5-(trifluoromethyl)-2,3-dihydro-1-benzofuran-2-yl]methyl]piperazin-1-yl)ethoxy]cyclohexyl]amino)-2-(trifluoromethyl)benzonitrile]	≥ 90		5.3		< 5
O=C(CO[C@H]1CC[C@H](Nc2ccc([N+](=O)[O-])c(C(F)(F)F)c2)CC1)N1CCN(Cc2cc3cc(Cl)ccc3o2)CC1 [Compound 178, 1-[4-[(5-chloro-1-benzofuran-2-yl)methyl]piperazin-1-yl]-2-[(4-[[4-nitro-3-(trifluoromethyl)phenyl]amino]cyclohexyl)oxy]ethan-1-one]	≥ 90	≥ 90	4.9	< 1	
O=C(CO[C@H]1CC[C@H](Nc2ccc([N+](=O)[O-])c(C(F)(F)F)c2)CC1)N1CCN(Cc2cc3cc(F)ccc3s2)CC1 [Compound 234, 1-[4-[(5-fluoro-1-benzothiophen-2-yl)methyl]piperazin-1-yl]-2-[[4-[[4-nitro-3-(trifluorometh-yl)phenyl]amino]cyclohexyl]oxy]ethan-1-one]	≥ 90	≥ 90	4	< 0.1	
O=C(CO[C@H]1CC[C@H](Nc2ccc([N+](=O)[O-])c(C(F)(F)F)c2)CC1)N1CCN(Cc2ccc3ccc(C(F)(F)F)cc3n2)CC1 [Compound 328, 2-[4-(4-nitro-3-trifluoromethyl-phenylamino)-cyclohexyloxy]-1-[4-(7-trifluoromethyl-quinolin-2-ylmethyl)-piperazin-1-yl]-ethanone]	≥ 90	≥ 90	7.2		
O=C(CO[C@H]1CC[C@H](Nc2ccc([N+](=O)[O-])c(C(F)(F)F)c2)CC1)N1CCN(Cc2cc3c(F)c(F)ccc3o2)CC1 [Compound 320, 2-[(4-[[4-nitro-3-(trifluoromethyl)phenyl]amino]cyclohexyl)-oxy]1-[4-(4,5-difluorobenzofuran-2-ylmethyl)piperazin-1-yl]ethan-1-one]	≥ 90	≥ 90	6.8		
O=C(NCCO[C@H]1CC[C@H](Nc2ccc([N+](=O)[O-])c(C(F)(F)F)c2)CC1)C(=O)NCc1cc2cc(F)ccc2o1 [Compound 221, N^1-((5-fluorobenzofuran-2-yl)methyl)-N^2-(2-(4-(4-nitro-3-(trifluoromethyl)phenylamino)cyclohexyloxy)ethyl)oxalamide]			7.5	< 1	
O=C(NCCO[C@H]1CC[C@H](Nc2ccc([N+](=O)[O-])c(C(F)(F)F)c2)CC1)C(=O)NCc1cc2cc(Cl)ccc2o1 [Compound 222]	≥ 90		5	< 0.1	
O=C(CO[C@H]1CC[C@H](Nc2ccc([N+](=O)[O-])c(C(F)(F)F)c2)CC1)N1CCN(Cc2cc3ccc(Cl)cc3o2)CC1 [Compound 322, 2-[(4-[[4-nitro-3-(trifluoromethyl)phenyl]amino]cyclohexyl)-oxy]1-[4-(6-chlorobenzofuran-2-ylmethyl)piperazin-1-yl]ethan-1-one]	≥ 90		7.9		
N#Cc1ccc(N[C@H]2CC[C@H](OCC(=O)N3CCN(Cc4cc5cc(Cl)ccc5o4)CC3)CC2)cc1C(F)(F)F [Compound 274, 2-[(4-[[4-cyano-3-(trifluoromethyl)phenyl]amino]cyclohexyl)-oxy]1-[4-(5-chlorobenzofuran-2-ylmethyl)piperazin-1-yl]ethan-1-one]	≥ 90		9.2		< 1
N#Cc1ccc(N[C@H]2CC[C@H](OCC(=O)N3CCN(Cc4ccc5cc(C(F)(F)F)ccc5n4)CC3)CC2)cc1C(F)(F)F [Compound 334, 4-(4-{2-oxo-2-[4-(6-trifluoromethyl-quinolin-2-ylmethyl)-piperazin-1-yl]-ethoxy}-cyclohexylamino)-2-trifluoromethyl-benzonitrile]	≥ 90		11.9		
N#Cc1ccc(N[C@H]2CC[C@H](OCC(=O)N3CCN(c4cnc5ccccc5c4)CC3)CC2)cc1C(F)(F)F [Compound 335, 4-[[4-[2-oxo-2-[4-(3-quinolyl)piperazin-1-yl]ethoxy]cyclohexyl]amino]-2-(trifluoromethyl)benzonitrile]	≥ 90		15		
N#Cc1ccc(N[C@H]2CC[C@H](OCC(=O)N3CCN(Cc4nc5cc(C(F)(F)F)ccc5s4)CC3)CC2)cc1C(F)(F)F [Compound 301]	≥ 90	≥ 90	9.9		< 0.1
O=C(CO[C@H]1CC[C@H](Nc2ccc([N+](=O)[O-])c(C(F)(F)F)c2)CC1)N1CCN(CC2Cc3ccccc3O2)CC1 (stereo partly shown) [Compound 24, 1-[4-(2,3-dihydro-1-benzofuran-2-ylmethyl)piperazin-1-yl]-2-[(4-[[4-nitro-3-(trifluoromethyl)phenyl]amino]cyclohexyl)oxy]ethan-1-one]	≥ 90		9.7	< 1	
N#Cc1ccc(N[C@H]2CC[C@H](OCC(=O)N3CCN(Cc4ccc5ccc(C(F)(F)F)cc5n4)CC3)CC2)cc1C(F)(F)F [Compound 333, 4-(4-{2-oxo-2-[4-(7-trifluoromethyl-quinolin-2-ylmethyl)-piperazin-1-yl]-ethoxy}-cyclohexylamino)-2-trifluoromethyl-benzonitrile]	≥ 90		8.1		
CN(c1ccc([N+](=O)[O-])c(C(F)(F)F)c1)[C@H]1CC[C@H](OCC(=O)N2CCN(Cc3cc4cc(C(F)(F)F)ccc4o3)CC2)CC1 [Compound 256, 2-[[4-[methyl[4-nitro-3-(trifluoromethyl)phenyl]amino]cyclohexyl]oxy]-1-(4-[[5-(trifluorom-ethyl)-1-benzofuran-2-yl]methyl]piperazin-1-yl)ethan-1-one]	≥ 90		5.4	< 1	
O=C(CO[C@H]1CC[C@H](Nc2ccc([N+](=O)[O-])c(C(F)(F)F)c2)CC1)N1CCN(Cc2nc3cc(F)ccc3o2)CC1 [Compound 285, 2-[(4-[[4-nitro-3-(trifluoromethyl)phenyl]amino]cyclohexyl)-oxy]1-[4-(5-fluorobenzoxazol-2-ylmethyl)piperazin-1-yl]ethan-1-one]	≥ 90		12		
COc1ccc2oc(CN3CCN(C(=O)CO[C@H]4CC[C@H](Nc5ccc([N+](=O)[O-])c(C(F)(F)F)c5)CC4)CC3)cc2c1 [Compound 323, 2-[(4-[[4-nitro-3-(trifluoromethyl)phenyl]amino]cyclohexyl)-oxy]1-[4-(5-methoxybenzofuran-2-ylmethyl)piperazin-1-yl]ethan-1-one]	≥ 90		11.9		
N#Cc1ccc(N[C@H]2CC[C@H](OCC(=O)N3CCN(Cc4cc5cc(C(F)(F)F)ccc5o4)CC3)CC2)cc1C(F)(F)F [Compound 306, 4-(4-{2-oxo-2-[4-(5-trifluoromethyl-benzofuran-2-ylmethyl)-piperazin-1-yl]-ethoxy}-cyclohexylamino)-2-trifluoromethyl-benzonitrile]	≥ 90		9		< 0.1
O=C(CO[C@H]1CC[C@H](Nc2ccc([N+](=O)[O-])c(C(F)(F)F)c2)CC1)N1CCN(Cc2ccc3c(C(F)(F)F)cccc3n2)CC1 [Compound 329, 2-[4-(4-nitro-3-trifluoromethyl-phenylamino)-cyclohexyloxy]-1-[4-(5-trifluoromethyl-quinolin-2-ylmethyl)-piperazin-1-yl]-ethanone]	≥ 90		5.6		
